# According to PubChem BioAssay (NCI):
#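 96-well plates; 48 h exposure; 5 concentrations. Endpoints by linear interpolation between flanking doses. Not reached: highest tested concentration assigned. Abbreviation: GI50, concentration required for 50% inhibition of growth. TGI: concentration producing complete growth inhibition.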
# What was measured:
# Assay in all cases: NCI anticancer screen, dose series, 48 h
# ACHN renal = system: ACHN renal
# SR leukemia = system: SR leukemia
# SF-268 CNS = system: SF-268 CNS
# OVCAR-5 ovarian = system: OVCAR-5 ovarian
# SW-620 colon = system: SW-620 colon
# HCC-2998 colon = system: HCC-2998 colon
# SN12C renal = system: SN12C renal
# MDA-MB-231 breast = system: MDA-MB-231 breast
# NCI-H23 lung = system: NCI-H23 lung
# A549 NSCLC = system: A549 NSCLC
# 786-0 renal = system: 786-0 renal
# OVCAR-3 ovarian = system: OVCAR-3 ovarian
# UACC-62 melanoma = system: UACC-62 melanoma
# LOX IMVI melanoma = system: LOX IMVI melanoma
# HOP-92 NSCLC = system: HOP-92 NSCLC
# K-562 leukemia = system: K-562 leukemia
# DU-145 prostate = system: DU-145 prostate
# KM12 colon = system: KM12 colon
# HOP-62 NSCLC = system: HOP-62 NSCLC
# UO-31 renal = system: UO-31 renal
# OVCAR-8 ovarian = system: OVCAR-8 ovarian
# HCT-116 colon = system: HCT-116 colon
# OVCAR-4 ovarian = system: OVCAR-4 ovarian
# SK-MEL-2 melanoma = system: SK-MEL-2 melanoma
# HT29 colon = system: HT29 colon
# COLO 205 colon = system: COLO 205 colon
# IGROV1 ovarian = system: IGROV1 ovarian
# U251 CNS = system: U251 CNS
# MOLT-4 leukemia = system: MOLT-4 leukemia
# MDA-MB-435 = system: MDA-MB-435
# M14 melanoma = system: M14 melanoma
# HL-60(TB) leukemia = system: HL-60(TB) leukemia
# NCI/ADR-RES ovarian = system: NCI/ADR-RES ovarian
# NCI-H226 lung = system: NCI-H226 lung
# SNB-19 CNS = system: SNB-19 CNS
# CAKI-1 renal = system: CAKI-1 renal
# SK-MEL-5 melanoma = system: SK-MEL-5 melanoma
# TK-10 renal = system: TK-10 renal
# NCI-H460 lung = system: NCI-H460 lung
# T-47D breast = system: T-47D breast
# PC-3 prostate = system: PC-3 prostate
# SF-295 CNS = system: SF-295 CNS
# SK-OV-3 ovarian = system: SK-OV-3 ovarian
# UACC-257 melanoma = system: UACC-257 melanoma
# SK-MEL-28 melanoma = system: SK-MEL-28 melanoma
# EKVX NSCLC = system: EKVX NSCLC
# BT-549 breast = system: BT-549 breast
# HCT-15 colon = system: HCT-15 colon
# NCI-H522 lung = system: NCI-H522 lung
# RXF 393 renal = system: RXF 393 renal
# SNB-75 CNS = system: SNB-75 CNS
# A498 renal = system: A498 renal
# RPMI-8226 leukemia = system: RPMI-8226 leukemia
# CCRF-CEM leukemia = system: CCRF-CEM leukemia
# MALME-3M melanoma = system: MALME-3M melanoma
# HS 578T breast = system: HS 578T breast
# SF-539 CNS = system: SF-539 CNS
# MCF7 breast = system: MCF7 breast
smiles,measurement,setting,value
CCCCCCCCN=C(N)c1ccc(N2CCN(c3ccc(C(N)=NCCCCCCCC)cc3)CC2)cc1,GI50,ACHN renal,2.37 µM
same,TGI,ACHN renal,12.7 µM
same,GI50,SR leukemia,0.97 µM
same,TGI,SR leukemia,2.26 µM
same,GI50,SF-268 CNS,1.85 µM
same,TGI,SF-268 CNS,5.91 µM
same,GI50,OVCAR-5 ovarian,3.27 µM
same,TGI,OVCAR-5 ovarian,14.4 µM
same,GI50,SW-620 colon,1.76 µM
same,TGI,SW-620 colon,16.8 µM
same,GI50,HCC-2998 colon,2.06 µM
same,TGI,HCC-2998 colon,8.79 µM
same,GI50,SN12C renal,1.09 µM
same,TGI,SN12C renal,3.05 µM
same,GI50,MDA-MB-231 breast,3.37 µM
same,TGI,MDA-MB-231 breast,> 50 µM
same,GI50,NCI-H23 lung,1.52 µM
same,TGI,NCI-H23 lung,6.49 µM
same,GI50,A549 NSCLC,1.67 µM
same,TGI,A549 NSCLC,9.08 µM
same,GI50,786-0 renal,1.67 µM
same,TGI,786-0 renal,5.49 µM
same,GI50,OVCAR-3 ovarian,0.931 µM
same,TGI,OVCAR-3 ovarian,3.2 µM
same,GI50,UACC-62 melanoma,1.92 µM
same,TGI,UACC-62 melanoma,8.44 µM
same,GI50,LOX IMVI melanoma,1.92 µM
same,TGI,LOX IMVI melanoma,9.01 µM
same,GI50,HOP-92 NSCLC,14.9 µM
same,TGI,HOP-92 NSCLC,> 50 µM
same,GI50,K-562 leukemia,1.46 µM
same,TGI,K-562 leukemia,> 50 µM
same,GI50,DU-145 prostate,2.42 µM
same,TGI,DU-145 prostate,18 µM
same,GI50,KM12 colon,1.9 µM
same,TGI,KM12 colon,8.81 µM
same,GI50,HOP-62 NSCLC,7.14 µM
same,TGI,HOP-62 NSCLC,15 µM
same,GI50,UO-31 renal,4.22 µM
same,TGI,UO-31 renal,> 50 µM
same,GI50,OVCAR-8 ovarian,1.49 µM
same,TGI,OVCAR-8 ovarian,6.65 µM
same,GI50,HCT-116 colon,1.64 µM
same,TGI,HCT-116 colon,5.99 µM
same,GI50,OVCAR-4 ovarian,2.35 µM
same,TGI,OVCAR-4 ovarian,14.9 µM
same,GI50,SK-MEL-2 melanoma,1.69 µM
same,TGI,SK-MEL-2 melanoma,> 50 µM
same,GI50,HT29 colon,1.61 µM
same,TGI,HT29 colon,13.6 µM
same,GI50,COLO 205 colon,1.49 µM
same,TGI,COLO 205 colon,19.2 µM
same,GI50,IGROV1 ovarian,1.62 µM
same,TGI,IGROV1 ovarian,> 50 µM
same,GI50,U251 CNS,1.45 µM
same,TGI,U251 CNS,6.33 µM
same,GI50,MOLT-4 leukemia,0.724 µM
same,TGI,MOLT-4 leukemia,3.4 µM
same,GI50,MDA-MB-435,1.25 µM
same,TGI,MDA-MB-435,3.23 µM
same,GI50,M14 melanoma,1.76 µM
same,TGI,M14 melanoma,6.68 µM
same,GI50,HL-60(TB) leukemia,1.17 µM
same,TGI,HL-60(TB) leukemia,4.66 µM
same,GI50,NCI/ADR-RES ovarian,> 50 µM
same,TGI,NCI/ADR-RES ovarian,> 50 µM
same,GI50,NCI-H226 lung,1.6 µM
same,TGI,NCI-H226 lung,5.44 µM
same,GI50,SNB-19 CNS,2.16 µM
same,TGI,SNB-19 CNS,14.6 µM
same,GI50,CAKI-1 renal,1.28 µM
same,TGI,CAKI-1 renal,3.68 µM
same,GI50,SK-MEL-5 melanoma,1.05 µM
same,TGI,SK-MEL-5 melanoma,2.45 µM
same,GI50,TK-10 renal,1.72 µM
same,TGI,TK-10 renal,8.92 µM
same,GI50,NCI-H460 lung,1.63 µM
same,TGI,NCI-H460 lung,> 50 µM
same,GI50,T-47D breast,1.63 µM
same,TGI,T-47D breast,13.5 µM
same,GI50,PC-3 prostate,22.7 µM
same,TGI,PC-3 prostate,> 50 µM
same,GI50,SF-295 CNS,1.1 µM
same,TGI,SF-295 CNS,2.79 µM
same,GI50,SK-OV-3 ovarian,1.76 µM
same,TGI,SK-OV-3 ovarian,10.2 µM
same,GI50,UACC-257 melanoma,4.03 µM
same,TGI,UACC-257 melanoma,13.2 µM
same,GI50,SK-MEL-28 melanoma,2.74 µM
same,TGI,SK-MEL-28 melanoma,17.2 µM
same,GI50,EKVX NSCLC,1.55 µM
same,TGI,EKVX NSCLC,8.75 µM
same,GI50,BT-549 breast,1.41 µM
same,TGI,BT-549 breast,3.82 µM
same,GI50,HCT-15 colon,1.79 µM
same,TGI,HCT-15 colon,7.2 µM
same,GI50,NCI-H522 lung,2.27 µM
same,TGI,NCI-H522 lung,> 50 µM
same,GI50,RXF 393 renal,1.13 µM
same,TGI,RXF 393 renal,4.49 µM
COC(O)C(=O)c1c2c(cc3c1CC1(Cc4cc5c(cc4C1)CCC5)C3)CCC2 (stereo unspecified),TGI,ACHN renal,29.3 µM
same,TGI,SR leukemia,15.1 µM
same,TGI,SF-268 CNS,36.1 µM
same,TGI,OVCAR-5 ovarian,33.5 µM
same,TGI,SW-620 colon,35.5 µM
same,TGI,HCC-2998 colon,42.8 µM
same,TGI,MDA-MB-231 breast,29.2 µM
same,TGI,SNB-75 CNS,31.6 µM
same,TGI,NCI-H23 lung,33.1 µM
same,TGI,A549 NSCLC,32.6 µM
same,TGI,786-0 renal,27 µM
same,TGI,OVCAR-3 ovarian,28.9 µM
same,TGI,LOX IMVI melanoma,22.8 µM
same,TGI,HOP-92 NSCLC,31 µM
same,TGI,K-562 leukemia,36.2 µM
same,TGI,DU-145 prostate,33.7 µM
same,TGI,HOP-62 NSCLC,30.2 µM
same,TGI,UO-31 renal,35.8 µM
same,TGI,OVCAR-8 ovarian,33.6 µM
same,TGI,HCT-116 colon,20.9 µM
same,TGI,OVCAR-4 ovarian,33.9 µM
same,TGI,A498 renal,31.8 µM
same,TGI,RPMI-8226 leukemia,30 µM
same,TGI,SK-MEL-2 melanoma,32.1 µM
same,TGI,HT29 colon,22.7 µM
same,TGI,CCRF-CEM leukemia,20.5 µM
same,TGI,MALME-3M melanoma,31.2 µM
same,TGI,IGROV1 ovarian,26 µM
same,TGI,U251 CNS,25.7 µM
same,TGI,HS 578T breast,53.3 µM
same,TGI,MOLT-4 leukemia,33.8 µM
same,TGI,MDA-MB-435,6.58 µM
same,TGI,M14 melanoma,31 µM
same,TGI,SF-539 CNS,31.5 µM
same,TGI,HL-60(TB) leukemia,44.3 µM
same,TGI,NCI/ADR-RES ovarian,34 µM
same,TGI,SNB-19 CNS,36.1 µM
same,TGI,CAKI-1 renal,37.4 µM
same,TGI,SK-MEL-5 melanoma,31.3 µM
same,TGI,TK-10 renal,32.1 µM
same,TGI,NCI-H460 lung,42.7 µM
same,TGI,T-47D breast,50.4 µM
same,TGI,PC-3 prostate,30.8 µM
same,TGI,SF-295 CNS,41.8 µM
same,TGI,SK-OV-3 ovarian,31.8 µM
same,TGI,UACC-257 melanoma,33.1 µM
same,TGI,SK-MEL-28 melanoma,35.7 µM
same,TGI,EKVX NSCLC,41.1 µM
same,TGI,HCT-15 colon,39.8 µM
same,TGI,NCI-H522 lung,36.1 µM
same,TGI,MCF7 breast,33.9 µM
same,TGI,RXF 393 renal,29 µM
C=CCNc1nc(C#N)c(N)s1,TGI,ACHN renal,> 10 µM
same,TGI,SR leukemia,> 10 µM
same,TGI,SF-268 CNS,> 10 µM
same,TGI,OVCAR-5 ovarian,> 10 µM
same,TGI,SW-620 colon,> 10 µM
same,TGI,SNB-75 CNS,> 10 µM
same,TGI,NCI-H23 lung,> 10 µM
same,TGI,A549 NSCLC,> 10 µM
same,TGI,786-0 renal,> 10 µM
same,TGI,UACC-62 melanoma,> 10 µM
same,TGI,HOP-92 NSCLC,> 10 µM
same,TGI,K-562 leukemia,> 10 µM
same,TGI,HOP-62 NSCLC,> 10 µM
same,TGI,OVCAR-4 ovarian,> 10 µM
same,TGI,RPMI-8226 leukemia,> 10 µM
same,TGI,SK-MEL-2 melanoma,> 10 µM
same,TGI,CCRF-CEM leukemia,> 10 µM
same,TGI,COLO 205 colon,> 10 µM
same,TGI,MALME-3M melanoma,> 10 µM
same,TGI,IGROV1 ovarian,> 10 µM
same,TGI,U251 CNS,> 10 µM
same,TGI,MOLT-4 leukemia,> 10 µM
same,TGI,MDA-MB-435,> 10 µM
same,TGI,M14 melanoma,> 10 µM
same,TGI,HL-60(TB) leukemia,> 10 µM
same,TGI,NCI/ADR-RES ovarian,> 10 µM
same,TGI,CAKI-1 renal,> 10 µM
same,TGI,SK-MEL-5 melanoma,> 10 µM
same,TGI,NCI-H460 lung,> 10 µM
same,TGI,T-47D breast,> 10 µM
same,TGI,SK-OV-3 ovarian,> 10 µM
same,TGI,SK-MEL-28 melanoma,> 10 µM
same,TGI,MCF7 breast,> 10 µM
same,TGI,RXF 393 renal,> 10 µM
